Data: the OligoGym collection
These antisense oligonucleotides have a phosphorothioate backbone; sugars and methylation of C are not fully specified.
Further: test concentration or dose not given here.

What follows are sequences tested against TFRC. Details: ASO.
AAACCTTGAAGTTGCTGG gave a remaining target (mRNA or protein) (fraction of control) of 0.93. For AACTGGTTCTCTTTCAAT, the remaining target (mRNA or protein) (fraction of control) was 0.95. Work on AAGCTGCTGCCTAAAGAC yielded a remaining target (mRNA or protein) (fraction of control) of at least 1. AATTATGGGAAACACTGT gave a remaining target (mRNA or protein) (fraction of control) of at least 1. Work on ACACTGCTCCCGATAATG yielded a remaining target (mRNA or protein) (fraction of control) of at least 1. Sequence ACGCCAGACTTTGCTGAG has a remaining target (mRNA or protein) (fraction of control) of 0.38. Sequence ACTGACCAGCGACCTCTG has a remaining target (mRNA or protein) (fraction of control) of 0.58. AGACCAGCCCTTAGGATT showed a remaining target (mRNA or protein) (fraction of control) of 0.56. AGAGGCAGTTCCCATTAC showed a remaining target (mRNA or protein) (fraction of control) of 0.46. Sequence AGATCCCTCACAAATGAA has a remaining target (mRNA or protein) (fraction of control) of at least 1. With AGCTATGGGTATCACATT the remaining target (mRNA or protein) (fraction of control) was at least 1. AGGAAACCTGCTACATTC was tested, and the remaining target (mRNA or protein) (fraction of control) was at least 1. AGTCCAAGATAAAAGAGG gave a remaining target (mRNA or protein) (fraction of control) of at least 1. ATAGCAGATACTTCCACT was tested, and the remaining target (mRNA or protein) (fraction of control) was 0.96. In the case of ATATTGAGCCTGTTAGCA, the remaining target (mRNA or protein) (fraction of control) is reported as 0.95. ATCTCAGTGCCAAAAGGA gave a remaining target (mRNA or protein) (fraction of control) of at least 1. For ATTAAGTAGAGGACCTGG, the remaining target (mRNA or protein) (fraction of control) was 0.66. ATTCTTATCTGGTCAGTG showed a remaining target (mRNA or protein) (fraction of control) of at least 1. ATTCTTGCTTTCTGAGGT showed a remaining target (mRNA or protein) (fraction of control) of at least 1. In the case of CAAAGTAAGCGAACCACT, the remaining target (mRNA or protein) (fraction of control) is reported as at least 1. Sequence CAACCCTAACTGTAGAAA has a remaining target (mRNA or protein) (fraction of control) of at least 1. For CACAGCAATAGTCCCATA, the remaining target (mRNA or protein) (fraction of control) was 0.67. Sequence CACCCGAACCAGGAATCT has a remaining target (mRNA or protein) (fraction of control) of at least 1. With CACGAGGGTCGGTGTAGT the remaining target (mRNA or protein) (fraction of control) was at least 1. CACTTTGTTCAACTCAGG showed a remaining target (mRNA or protein) (fraction of control) of at least 1. Work on CAGCAAGTTTCATCTCCA yielded a remaining target (mRNA or protein) (fraction of control) of 0.83. CAGCCCCGCAGGATGAAG gave a remaining target (mRNA or protein) (fraction of control) of at least 1. Work on CATGTCCAAAGAATGAAA yielded a remaining target (mRNA or protein) (fraction of control) of 0.95. CATTCTGAACTGCCACAC was tested, and the remaining target (mRNA or protein) (fraction of control) was 0.62. In the case of CCAATCATAAATCCAATC, the remaining target (mRNA or protein) (fraction of control) is reported as at least 1. CCACGAGCAGAATACAGC gave a remaining target (mRNA or protein) (fraction of control) of at least 1. For CCCTGCTCTGACAATCAC, the remaining target (mRNA or protein) (fraction of control) was 0.9. With CCGAGATGGTGGAAACTG the remaining target (mRNA or protein) (fraction of control) was at least 1. CCGCCACAGCCCCTTCCC was tested, and the remaining target (mRNA or protein) (fraction of control) was 0.95. Work on CCTCCGTCCCGAGCCGCC yielded a remaining target (mRNA or protein) (fraction of control) of 0.43. CGCTTTCCCGCTCCCCGT showed a remaining target (mRNA or protein) (fraction of control) of at least 1. CGGATGCTTCACATTTTG showed a remaining target (mRNA or protein) (fraction of control) of at least 1. CGGTTCCTGCCAGTCTCT gave a remaining target (mRNA or protein) (fraction of control) of 0.54. For CTACCCCTTTACAATAGC, the remaining target (mRNA or protein) (fraction of control) was 0.96. For CTCATTGGCAAGAAAACA, the remaining target (mRNA or protein) (fraction of control) was 0.94. Work on CTCCGACAACTTTCTCTT yielded a remaining target (mRNA or protein) (fraction of control) of at least 1. With CTCTGGAGATTGTCTGGA the remaining target (mRNA or protein) (fraction of control) was 0.76. Work on CTGAAGAGACCCTATGAA yielded a remaining target (mRNA or protein) (fraction of control) of 0.97. For CTGGCTCCTCCCTCACTG, the remaining target (mRNA or protein) (fraction of control) was 0.75. CTGTGCTGTCCAGTTTCT was tested, and the remaining target (mRNA or protein) (fraction of control) was 0.9. GAACTAAATGGAGGCTTA showed a remaining target (mRNA or protein) (fraction of control) of at least 1. With GAAGCCCGCACTCACACT the remaining target (mRNA or protein) (fraction of control) was 0.8. Sequence GCGGCTCCCTATGGCTGC has a remaining target (mRNA or protein) (fraction of control) of at least 1. Work on GGAAACTGAGTGTGATTG yielded a remaining target (mRNA or protein) (fraction of control) of at least 1. GGAAAGGGAAAGCAGCAT gave a remaining target (mRNA or protein) (fraction of control) of 0.95. GGGTTTTATTAGCAGATG was tested, and the remaining target (mRNA or protein) (fraction of control) was at least 1. For GGTTTCTGAACAGCGTTT, the remaining target (mRNA or protein) (fraction of control) was at least 1. In the case of GTCTCCAGCACTCCAACT, the remaining target (mRNA or protein) (fraction of control) is reported as at least 1. GTCTGTTTTCTCAGCATT showed a remaining target (mRNA or protein) (fraction of control) of at least 1. With GTGACACATTCAAGTGAG the remaining target (mRNA or protein) (fraction of control) was at least 1. GTTATCGCCATCTACTTG showed a remaining target (mRNA or protein) (fraction of control) of at least 1. For GTTGTTAGTCTGGAAGTA, the remaining target (mRNA or protein) (fraction of control) was 0.9. TACACCTTGGATAAACTG gave a remaining target (mRNA or protein) (fraction of control) of 0.93. For TACCCAAATAAGGATAAT, the remaining target (mRNA or protein) (fraction of control) was at least 1. TAGAGTCTGTTTTCCAGT showed a remaining target (mRNA or protein) (fraction of control) of at least 1. Work on TATACCTTTACCTCCAAA yielded a remaining target (mRNA or protein) (fraction of control) of 0.99. In the case of TATCTGAGAACATCTGGG, the remaining target (mRNA or protein) (fraction of control) is reported as at least 1. Sequence TATGATGGTTCACTCACG has a remaining target (mRNA or protein) (fraction of control) of at least 1. TATTGTCAGCATTTTCTT gave a remaining target (mRNA or protein) (fraction of control) of at least 1. In the case of TCAACATACAACGCAAGA, the remaining target (mRNA or protein) (fraction of control) is reported as 0.65. Work on TCAACCTGGTATCTCCTA yielded a remaining target (mRNA or protein) (fraction of control) of 0.65. TCAAGTTCTCCAGTAAAG showed a remaining target (mRNA or protein) (fraction of control) of at least 1. TCATTTTATCCAGCAGAA showed a remaining target (mRNA or protein) (fraction of control) of 0.79. TCCAGGTGTGTAAGGGTC showed a remaining target (mRNA or protein) (fraction of control) of at least 1. In the case of TGGGCAAGTTTCAATAGG, the remaining target (mRNA or protein) (fraction of control) is reported as at least 1. For TGGTGCTGGTGAAGTCTG, the remaining target (mRNA or protein) (fraction of control) was at least 1. TTAACAACAACAGGAAAG showed a remaining target (mRNA or protein) (fraction of control) of at least 1. In the case of TTAATAACTCCAAAGATG, the remaining target (mRNA or protein) (fraction of control) is reported as at least 1. For TTACAACCTTCAGCAGAG, the remaining target (mRNA or protein) (fraction of control) was at least 1. Work on TTACCCACCCAATGCTTA yielded a remaining target (mRNA or protein) (fraction of control) of 0.89. In the case of TTCTCCACCAAACAAGTT, the remaining target (mRNA or protein) (fraction of control) is reported as at least 1. In the case of TTCTTTCAGGAATGAGGA, the remaining target (mRNA or protein) (fraction of control) is reported as 0.96. With TTGGCTTCTGGTCCCCTC the remaining target (mRNA or protein) (fraction of control) was 0.38. Work on TTGGTTTTGTGACATTGG yielded a remaining target (mRNA or protein) (fraction of control) of 0.92. Sequence TTTAACATCAGGTTTTGT has a remaining target (mRNA or protein) (fraction of control) of at least 1. TTTAAGTCAAAAGGTCAA was tested, and the remaining target (mRNA or protein) (fraction of control) was at least 1. For TTTAGCATCAAATGAAGT, the remaining target (mRNA or protein) (fraction of control) was at least 1. Work on TTTGGCTGACGGCTGTTT yielded a remaining target (mRNA or protein) (fraction of control) of 0.39.

These sequences were tested against TNFRSF1A. Details: ASO.
With AAAGGCAAAGACCAAAGA the remaining target (mRNA or protein) (fraction of control) was 0.69. AAAGGCTCAGGGACGAAC gave a remaining target (mRNA or protein) (fraction of control) of 0.58. Work on ACAAAACAAAACAAAACA yielded a remaining target (mRNA or protein) (fraction of control) of 0.73. ACAGTTGAGGGTTGAGAC showed a remaining target (mRNA or protein) (fraction of control) of 0.7. In the case of ACGGTCCCATTGAGGCAG, the remaining target (mRNA or protein) (fraction of control) is reported as 0.66. ACGGTGTTCTGTTTCTCC was tested, and the remaining target (mRNA or protein) (fraction of control) was 0.93. ACTGTGGTGCCTGAGTCC showed a remaining target (mRNA or protein) (fraction of control) of 0.69. Work on AGACTCGGGCATAGAGAT yielded a remaining target (mRNA or protein) (fraction of control) of at least 1. For AGCCGCTCTCACACTCCC, the remaining target (mRNA or protein) (fraction of control) was 0.64. AGCGGCAGCAGCAGGTCA showed a remaining target (mRNA or protein) (fraction of control) of at least 1. With AGCTGAGGCAGTGTCTGA the remaining target (mRNA or protein) (fraction of control) was 0.73. AGCTGGAGGTGAAGGTGG was tested, and the remaining target (mRNA or protein) (fraction of control) was at least 1. Work on AGGAGGGATAAAAGGCAA yielded a remaining target (mRNA or protein) (fraction of control) of 0.78. AGGCAGTGTCTGAGGTGG showed a remaining target (mRNA or protein) (fraction of control) of at least 1. Sequence AGGCCCCATTGTTCCGTG has a remaining target (mRNA or protein) (fraction of control) of at least 1. AGGCTCTGTGGCTTGTGG was tested, and the remaining target (mRNA or protein) (fraction of control) was 0.53. AGGGCAGTGTGGCAGCGG showed a remaining target (mRNA or protein) (fraction of control) of 0.47. With AGGTGGTTTTCTGAAGCG the remaining target (mRNA or protein) (fraction of control) was at least 1.
